Test results published in PubChem BioAssay (NCI).
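Method: 48-hour compound exposure of cells in 96-well plates, five concentrations, linear interpolation of endpoints. TGI is the concentration that stops growth completely.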

Experiments:
Test in all cases: growth of human tumour cells (NCI), 48 h
[1] = tested on: IGROV1 ovarian
[2] = tested on: SF-268 CNS
[3] = tested on: SF-539 CNS
[4] = tested on: U251 CNS
[5] = tested on: K-562 leukemia
[6] = tested on: UACC-257 melanoma
[7] = tested on: RXF 393 renal
[8] = tested on: HCC-2998 colon
[9] = tested on: CAKI-1 renal
[10] = tested on: PC-3 prostate

SMILES	TGI [1] [µM]	TGI [2] [µM]	TGI [3] [µM]	TGI [4] [µM]	TGI [5] [µM]	TGI [6] [µM]	TGI [7] [µM]	TGI [8] [µM]	TGI [9] [µM]	TGI [10] [µM]
N=C1C(=N)c2ccccc2-c2ccccc21.[Cl-].[Ru+2].c1ccc(-c2ccccn2)nc1.c1ccc(-c2ccccn2)nc1	> 100	> 100	> 100	> 100	> 100	> 100	> 100	> 100	–	–
Cc1ccc(C)c(NC(=O)C(=O)C(C(=O)c2ccc3ccccc3c2)C2OC(=O)c3ccccc32)c1 (stereo not given)	40.5	23.2	17.4	16.2	> 100	36.5	9.74	28.7	52.6	–
Cc1ccc(C(=N)c2ccccc2Cc2cccc3ccccc23)c2ccccc12	> 100	> 100	> 100	> 100	> 100	> 100	> 100	–	> 100	> 100
C#CCNC(CSSCC(N)C(=O)O)C(=O)O (stereo not given)	> 100	> 100	> 100	> 100	–	> 100	> 100	> 100	> 100	> 100
c1ncn(C23C4C5C6C4C2C6C53)n1 (stereo not given)	> 100	> 100	> 100	> 100	> 100	> 100	–	> 100	–	> 100
COC(=O)[C@H]1C=NN[C@@H]1C(=O)N1[C@H]2CC3CC[C@@]2(CS1(=O)=O)C3(C)C	> 100	> 100	> 100	> 100	> 100	> 100	–	> 100	> 100	> 100
S=C1c2ccc(Cl)cc2-n2cnnc2C2CSCN12 (stereo not given)	> 100	> 100	–	> 100	27.7	> 100	> 100	> 100	> 100	> 100
O=C(Nc1ccccc1)N(C1=NCC(CI)S1)c1ccc(F)c(F)c1 (stereo not given)	> 100	> 100	> 100	> 100	> 100	> 100	–	> 100	> 100	> 100
CC12CCC(CC(=O)/C1=C(/Br)I)C2(C)C (stereo not given)	31.4	28.9	29.2	–	26.4	29.8	20.6	–	31.2	23.6
COc1cc(/C=C2\C(=O)N(c3cccc([N+](=O)[O-])c3)C(c3ccccc3)S2(=O)=O)cc(OC)c1OC (stereo not given)	> 100	–	–	> 100	> 100	> 100	> 100	> 100	> 100	> 100
CC(N=NNc1ccc(-c2nc3ccccc3[nH]2)cc1)C(=O)O (stereo not given)	> 100	> 100	> 100	60.8	> 100	> 100	> 100	–	> 100	> 100
N#CCCN(CCC#N)c1ccc(/C=C2\N=C(c3ccccc3)N(c3ccc(F)cc3)C2=O)cc1	> 100	> 100	> 100	> 100	> 100	> 100	> 100	–	> 100	> 100
c1ccc(-c2csc3c4ccccc4c4ccccc4[n+]23)cc1	31.3	9.65	14.8	13.8	> 30.7	3.27	26.7	13	> 36	–
Fc1ccc(C(OCCN2CCN(CCCc3ccccc3)CC2)c2ccc(F)cc2)cc1	22.2	14.6	–	14.3	16.1	8.62	11.3	11.7	13.5	12
C[C@H](c1ccccc1)N1C(=O)[C@@H](O)[C@H]1[C@H](CO)OCc1ccccc1	> 100	> 100	–	> 100	> 100	> 100	–	–	–	> 100
C[C@@H]1OC(=O)C[C@H]2CC(=O)N(CCC3CN(C(=O)OCc4ccccc4)c4ccccc43)C[C@@H]21 (stereo not given in full)	> 100	> 100	–	> 100	> 100	> 100	> 100	> 100	> 100	> 100
CC(=O)NC1C(OCc2ccccc2)OC(CO)C(O)C1OCC(=O)N1CCCC1C(=O)N[C@@H](CCC(=O)NCCCCNc1c2ccccc2nc2cccc([N+](=O)[O-])c12)C(N)=O (stereo not given in full)	50.6	> 100	> 100	48.9	> 100	–	–	52.4	> 100	60.3
